Laboratory results from patent US20160368879A1, “PHOTOACID GENERATOR, AND RESIN COMPOSITION FOR PHOTOLITHOGRAPHY” (SAN-APRO LTD., priority 2013, published 2016).

Legend:
Format in all cases: physicochemical
[1] = Molar extinction coefficient of i-line (365 nm), UV-visible absorbance in acetonitrile; settings: 0.25 mmol/L in acetonitrile, cell length 1 cm
Protocol: The synthesized photoacid generator was diluted to 0.25 mmol/L with acetonitrile, and using an ultraviolet-visible spectrophotometer (UV-2550 available from SHIMADZU CORPORATION), the absorbance in a range of 200 nm to 500 nm was measured with a cell having an optical path length (a cell length) of 1 cm. The molar extinction coefficient of i-line (365 nm) (ε365) was calculated from the following equation.
[In the equation, […] represents the absorbance at 365 nm.]

[2] = Thermal decomposition temperature (TG/DTA, 2% weight reduction); settings: point of 2% weight reduction; 10° C./minute from 30° C. to 500° C.; nitrogen atmosphere
Protocol: The synthesized photoacid generator was measured for the change in weight under a temperature increasing condition of 10° C./minute from 30° C. to 500° C. under a nitrogen atmosphere using a thermal gravimetric/differential thermal analyzer (TG/DTA 6200, available from Seiko Instruments Inc.), and a point where the weight was reduced by 2% was defined as the thermal decomposition temperature.

[3] = Solvent solubility (butyl acetate, toluene or PGMEA); settings: for Solvent solubility PGMEA / Solvent solubility Butyl acetate / Solvent solubility Toluene: 25° C.
Protocol: In a test tube, 0.1 g of the synthesized photoacid generator was placed, and an organic solvent (butyl acetate, toluene or PGMEA) was added thereto in 0.2 g portions under a condition where the temperature was adjusted to 25° C. until the photoacid generator was completely dissolved. In this connection, in the case where the photoacid generator was not completely dissolved even when 20 g of the solvent was added, the photoacid generator was evaluated as one that was not dissolved.

Compound	Molar extinction coefficient [1] [L/mol/cm]	Thermal decomposition temperature [2] [°C]	Solvent solubility PGMEA [3] [wt %]	Solvent solubility Butyl acetate [3] [wt %]	Solvent solubility Toluene [3] [wt %]	solubility to a solvent (in words) ([3]; summary of Tables 4 to 6)
O=C(Oc1cc2c3c(cccc3c1)C(=O)N(OS(=O)(=O)c1c(F)c(F)c(F)c(F)c1F)C2=O)c1ccccc1 [Example A-31, 3-benzoyloxy-1,8-naphthalimide pentafluorobenzenesulfonate]	1400	243	16	20	18	
CC1(C)C2CC[C@@]1(CS(=O)(=O)ON1C(=O)c3cccc4cc(OC(=O)c5ccccc5)cc(c34)C1=O)C(=O)C2 [Example A-51, 3-benzoyloxy-1,8-naphthalimide-(+)-10-camphorsulfonate]	1400	245	5	6	6	
CCCOc1ccc2c3c(cccc13)C(=O)N(OS(=O)(=O)CC13CCC(CC1=O)C3(C)C)C2=O (stereo not drawn) [Example A-42, 4-n-propoxy-1,8-naphthalimide-(+)-10-camphorsulfonate]	14000	245	1.2	1.5	2	
CCCC(=O)Oc1cc2c3c(cccc3c1)C(=O)N(OS(=O)(=O)c1c(F)c(F)c(F)c(F)c1F)C2=O [Example A-30, 3-butyroyloxy-1,8-naphthalimide pentafluorobenzenesulfonate]	1600	235	14	18	20	
O=C(Oc1cc2c3c(cccc3c1)C(=O)N(OS(=O)(=O)C(F)(F)F)C2=O)c1c(F)c(F)c(F)c(F)c1F [Example A-12, 3-pentafluorobenzoyloxy-1,8-naphthalimide trifluoromethanesulfonate]	1300	242	>30	>30	>30	
COc1cc2c3c(cccc3c1)C(=O)N(OS(=O)(=O)C[C@]13CCC(CC1=O)C3(C)C)C2=O [Example A-48, 3-methoxy-1,8-naphthalimide-(+)-10-camphorsulfonate]	7500	242	1.5	2	1.9	
CCCCC(CC)C(=O)Oc1cc2c3c(cccc3c1)C(=O)N(OS(=O)(=O)c1c(F)c(F)c(F)c(F)c1F)C2=O (stereo not shown) [Example A-29, 3-(2-ethylhexanoyloxy)-1,8-naphthalimide pentafluorobenzenesulfonate]	1500	230	18	25	23	
CC(C)(C)c1cc2c3c(cc(C(C)(C)C)cc3c1)C(=O)N(OS(=O)(=O)C(F)(F)F)C2=O [Example A-13, 3,6-di-tert-butyl-1,8-naphthalimide trifluoromethanesulfonate]	6500	245	8	8	7.5	
O=C1c2cccc3c(C(F)(F)C(F)(F)C(F)(F)C(F)(F)F)ccc(c23)C(=O)N1OS(=O)(=O)c1c(F)c(F)c(F)c(F)c1F [Example A-36, 4-(nonafluorobutyl)-1,8-naphthalimide pentafluorobenzenesulfonate]	40	239	13	14	11	
CC1(C)[C@@H]2CC[C@@]1(CS(=O)(=O)ON1C(=O)c3cccc4c([Si](C)(C)C)ccc(c34)C1=O)C(=O)C2 [Example A-58, 4-trimethylsilyl-1,8-naphthalimide-(+)-10-camphorsulfonate]	5500	243	2.5	2.5	3	
CC(C)(C)Cc1cc2c3c(cc(CC(C)(C)C)cc3c1)C(=O)N(OS(=O)(=O)C(F)(F)F)C2=O [Example A-14, 3,6-dineopentyl-1,8-naphthalimide trifluoromethanesulfonate]	6200	248	14	18	10	
CC(C)(C)Cc1cc2c3c(cc(CC(C)(C)C)cc3c1)C(=O)N(OS(=O)(=O)c1c(F)c(F)c(F)c(F)c1F)C2=O [Example A-34, 3,6-dineopentyl-1,8-naphthalimide pentafluorobenzenesulfonate]	6200	250	11	14	8	

Continued, values first:

Molar extinction coefficient [1] [L/mol/cm]	Thermal decomposition temperature [2] [°C]	Solvent solubility PGMEA [3] [wt %]	Solvent solubility Butyl acetate [3] [wt %]	Solvent solubility Toluene [3] [wt %]	solubility to a solvent (in words) ([3]; summary of Tables 4 to 6)	Compound
14000	238	4	4.5	7.5		CCCOc1ccc2c3c(cccc13)C(=O)N(OS(=O)(=O)C(F)(F)F)C2=O [Example A-2, 4-n-propoxy-1,8-naphthalimide trifluoromethanesulfonate]
330	225	2.4	2	4	insufficient	O=C1c2cccc3cccc(c23)C(=O)N1OS(=O)(=O)C(F)(F)F [A′-1, 1,8-naphthalimide trifluoromethanesulfonate, reference compound]
1400	241	20	25	23		O=C(Oc1cc2c3c(cccc3c1)C(=O)N(OS(=O)(=O)C(F)(F)F)C2=O)c1ccccc1 [Example A-11, 3-benzoyloxy-1,8-naphthalimide trifluoromethanesulfonate]
1600	234	>30	>30	>30		CCCC(=O)Oc1cc2c3c(cccc3c1)C(=O)N(OS(=O)(=O)C(F)(F)F)C2=O [Example A-10, 3-butyroyloxy-1,8-naphthalimide trifluoromethanesulfonate]
20000	240	5	7	7		O=C1c2cccc3c(Sc4ccccc4)ccc(c23)C(=O)N1OS(=O)(=O)C(F)(F)F [Example A-7, 4-phenylthio-1,8-naphthalimide trifluoromethanesulfonate]
40	239	22	25	28		O=C1c2cccc3c(C(F)(F)C(F)(F)C(F)(F)C(F)(F)F)ccc(c23)C(=O)N1OS(=O)(=O)C(F)(F)F [Example A-16, 4-(nonafluorobutyl)-1,8-naphthalimide trifluoromethanesulfonate]
16000	241	9	11	10		O=C1c2cccc3c(Oc4cccc(C(F)(F)F)c4)ccc(c23)C(=O)N1OS(=O)(=O)c1c(F)c(F)c(F)c(F)c1F [Example A-26, 4-(3-trifluoromethylphenoxy)-1,8-naphthalimide pentafluorobenzenesulfonate]
16000	243	2.8	3.5	3.3		CC1(C)C2CCC1(CS(=O)(=O)ON1C(=O)c3cccc4c(Oc5cccc(C(F)(F)F)c5)ccc(c34)C1=O)C(=O)C2 (stereo not drawn) [Example A-46, 4-(3-trifluoromethylphenoxy)-1,8-naphthalimide-(+)-10-camphorsulfonate]
3000	233	1.8	1.4	1.8		CC1(C)C2CCC1(CS(=O)(=O)ON1C(=O)c3cccc4c(C(=O)Cc5ccccc5)ccc(c34)C1=O)C(=O)C2 (stereo not drawn) [Example A-44, 4-phenylacetyl-1,8-naphthalimide-(+)-10-camphorsulfonate]
